Reference: patent US20040241114A1, “Hair Care and Nail Care Compositions Based on Ion-Pair Delivery System for Gender and Ethnic Selective Applications” (priority 2003, published 2004)

Tests used:
Assay type in all cases: physicochemical
Solubility in water = assay: Solubility in water
From the text: The ion-pair compositions thus formed are not just physical mixtures of the two compositions that are combined in an ion-pair mode to form such ion-pair compositions. Such ion-pair compositions are discreet chemical entities. For example, the combination of niacinamide with N-Acetyl-Cysteine results in the formation of ion-pair complex, Niacinamide N-Acetyl Cysteinate. […] Niacinamide N-Acetyl-Cysteinate, the ion-pair that is produced from the combination of the above two compositions is a new ingredient properties of which are very different from that of the above two compositions, which shall be described elsewhere.

[1] = Stability of water solution
pH of 1% water solution = assay: pH of 1% water solution

| solubility in water (Solubility in water) | stability of water solution [1] | pH of 1% water solution (pH of 1% water solution) | Compound |
| --- | --- | --- | --- |
| 50% | good | 6.3 | NC(=O)c1cccnc1 [niacinamide] |
| > 20% | poor | 3.5 | CC(=O)N[C@@H](CS)C(=O)O [N-Acetyl-Cysteine] |
